Results published in article PMC9144902, “Metal(II) Complexes of the Fluoroquinolone Fleroxacin: Synthesis, Characterization and Biological Profile” (Pharmaceutics, 2022).

What was measured:
[1] = target: T1, bovine serum albumin (BSA) (Bos taurus, UniProt P02769); assay: Albumin binding by tryptophan fluorescence emission quenching; settings: for K(BSA), BSA-binding constant / kq(BSA), BSA-quenching constant: BSA 3 μM; for K(BSA), BSA-binding constant: buffer pH 7.0, Scatchard equation; for kq(BSA), BSA-quenching constant: buffer pH 7.0, λexc 295 nm, Stern–Volmer, τ0 = 10^–8 s; for BSA fluorescence, % of the initial fluorescence intensity (I/Io): λem,max = 342 nm, final value of titration (Figure S11)
T1 construct: purchased
Procedure: (§1) Serum albumins (Sas) are the most abundant serum proteins and play a role in the circulatory system, primarily in the transport of drugs and other bioactive small molecules through the bloodstream.
(§2) The SA-quenching constants (kq) for the compounds (Table 5) were calculated with the Stern–Volmer quenching equation (Equations (S2) and (S3)).
(§3) Albumin-binding constants (K) were calculated using the Scatchard equation (Equation (S4)). […]
(§4) S2. Interaction with serum albumins
(§5) The albumin–binding study for the compounds was carried out b y fluorescence emission

[2] = target: T2, human serum albumin (HSA) (Homo sapiens, UniProt P02768); assay: as above; settings: for K(HSA), HSA-binding constant / kq(HSA), HSA-quenching constant: HSA 3 μM; for K(HSA), HSA-binding constant: buffer pH 7.0, Scatchard equation; for kq(HSA), HSA-quenching constant: buffer pH 7.0, λexc 295 nm, Stern–Volmer, τ0 = 10^–8 s; for HSA fluorescence, % of the initial fluorescence intensity (I/Io): λem,max = 351 nm, final value of titration (Figure S10)
T2 construct: purchased
Procedure: as §1, §2, §3, §4, §5

CT DNA = assay: Study of the DNA-interaction by cyclic voltammetry; format: binding, calf; settings: for Epa(f), anodic potential / Epc(f), cathodic potential / Epa(b), anodic potential / Epc(b), cathodic potential: M(II)/M(I), 1:2 DMSO/buffer; for Epa(f), anodic potential / Epc(f), cathodic potential: absence of CT DNA; for Epa(b), anodic potential / Epc(b), cathodic potential: presence of CT DNA; for Kr/Kox, ratio of equilibrium DNA-binding constants (reduced/oxidized form): eq. S6
Procedure: Cyclic voltammetry was used to study the interaction of the complexes with CT DNA. An intercalative interaction will induce a positive shift for the electrochemical potential(s) of metal oxidation/reduction, whereas, in the case of electrostatic interaction, a negative shift in the potential(s) may occur. The cyclic voltammograms of the complexes in a 1:2 DMSO:buffer solution (0.33 mM) were recorded in the absence and presence of the CT DNA solution (Figure S13). The predominant electrochemical feature for all complexes is a positive shift in the potential in the presence of CT DNA (ΔEpc/a = (–30)–(+127) mV). Consequently, the intercalative nature of the interaction of the complexes with DNA can be inferred from the presented data.
In order to evaluate further the redox behavior of the complexes, the corresponding equilibrium constants were calculated by determining the ratio Kr/Kox in accordance to Equation (S6), where Kox and Kr are the DNA-binding constants for the oxidized and reduced form, respectively, of the metal ions. For all complexes, the Kr/Kox ratio is close to or above 1 (Table 7), showing the selective binding of DNA to the […] form of the complexes. […]
S3.3 Study of the DNA –interaction by cyclic vol ta mmetry
Cyclic voltammetr y can be also used in order to calculate the corresponding equilibrium constant for the redox process. The ratio of the DNA–binding constants for the reduced (K r) and oxidized forms (Kox) of t he complex es (Kr/Kox) w as calculat ed according t o eq. S6:
Δ = = 0.059 × lo gEE E K oxoo o (eq. S6) […]
where Eo and Eo are the formal potentials of M(II)/M(I) redox couple in the fully bound and […]
free complexes, respectivel y. Kox and Kr are the binding constants for the binding of the oxidized and reduced species to DNA, respectivel y [S8] . […]

T2 sequence (P02768 25-609): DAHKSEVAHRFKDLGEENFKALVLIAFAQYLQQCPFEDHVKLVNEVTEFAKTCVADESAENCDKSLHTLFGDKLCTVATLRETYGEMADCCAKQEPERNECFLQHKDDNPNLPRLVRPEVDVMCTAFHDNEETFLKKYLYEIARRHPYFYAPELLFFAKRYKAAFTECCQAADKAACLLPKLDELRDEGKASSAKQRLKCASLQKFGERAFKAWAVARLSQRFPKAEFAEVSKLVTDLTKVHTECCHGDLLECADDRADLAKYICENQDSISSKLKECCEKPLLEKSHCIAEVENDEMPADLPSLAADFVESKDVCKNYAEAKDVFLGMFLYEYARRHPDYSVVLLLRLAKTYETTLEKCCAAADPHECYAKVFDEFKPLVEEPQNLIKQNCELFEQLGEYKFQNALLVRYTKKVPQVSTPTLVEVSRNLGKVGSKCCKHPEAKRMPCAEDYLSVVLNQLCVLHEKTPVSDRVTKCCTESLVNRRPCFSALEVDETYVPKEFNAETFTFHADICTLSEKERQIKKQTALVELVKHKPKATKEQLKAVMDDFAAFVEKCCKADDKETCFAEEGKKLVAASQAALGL
T1 sequence (P02769 25-607): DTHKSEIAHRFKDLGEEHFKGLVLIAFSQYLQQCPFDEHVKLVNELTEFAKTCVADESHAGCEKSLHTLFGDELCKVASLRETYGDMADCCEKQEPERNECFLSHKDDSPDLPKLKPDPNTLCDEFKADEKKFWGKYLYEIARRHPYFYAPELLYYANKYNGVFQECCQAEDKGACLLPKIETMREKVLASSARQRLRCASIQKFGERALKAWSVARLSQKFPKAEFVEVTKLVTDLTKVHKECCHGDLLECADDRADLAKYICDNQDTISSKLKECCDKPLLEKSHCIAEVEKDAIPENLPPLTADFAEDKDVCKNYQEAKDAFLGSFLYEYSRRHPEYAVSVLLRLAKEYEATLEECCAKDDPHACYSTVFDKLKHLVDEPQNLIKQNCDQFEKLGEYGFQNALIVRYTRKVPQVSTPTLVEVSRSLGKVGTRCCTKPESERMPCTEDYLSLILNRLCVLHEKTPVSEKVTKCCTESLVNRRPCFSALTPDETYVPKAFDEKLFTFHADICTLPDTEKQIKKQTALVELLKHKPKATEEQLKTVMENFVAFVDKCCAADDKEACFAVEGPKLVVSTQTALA

Compound	K(BSA), BSA-binding constant [1]	kq(BSA), BSA-quenching constant [1]	BSA fluorescence, % of the initial fluorescence intensity (I/Io) [1] [%]	K(HSA), HSA-binding constant [2]	kq(HSA), HSA-quenching constant [2]	HSA fluorescence, % of the initial fluorescence intensity (I/Io) [2] [%]	Epa(f), anodic potential (CT DNA) [mV]	Epc(f), cathodic potential (CT DNA) [mV]	Epa(b), anodic potential (CT DNA) [mV]	Epc(b), cathodic potential (CT DNA) [mV]	Kr/Kox, ratio of equilibrium DNA-binding constants (reduced/oxidized form) (CT DNA)
CN1CCN(c2c(F)cc3c(=O)c(C(=O)[O-])cn(CCF)c3c2F)CC1.[Cl-].[Cu+2].c1ccc(Nc2ccccn2)nc1 [complex 7, [Cu(flrx)(bipyam)Cl]]	1.26(±0.05)×10^5 M^−1	1.56(±0.04) × 10^13 M^−1s^−1	26.6	1.31(±0.05) × 10^5 M^−1	5.57(±0.18) × 10^12 M^−1s^−1	49.3	−426	−729	−300	−710	3.41
CN1CCN(c2c(F)cc3c(=O)c(C(=O)[O-])cn(CCF)c3c2F)CC1.[Cl-].[Cu+2].c1cnc2c(c1)ccc1cccnc12 [complex 8, [Cu(flrx)(phen)Cl]]	5.03(±0.22) × 10^4 M^−1	1.04(±0.03) × 10^13 M^−1s^−1	34.4	3.45(±0.14) × 10^4 M^−1	4.08(±0.13) × 10^12 M^−1s^−1	56.5	−483	−725	−406	−720	2.00
CN1CCN(c2c(F)cc3c(=O)c(C(=O)[O-])cn(CCF)c3c2F)CC1.CN1CCN(c2c(F)cc3c(=O)c(C(=O)[O-])cn(CCF)c3c2F)CC1.[Mn+2].c1ccc(-c2ccccn2)nc1 [complex 9, [Mn(flrx)2(bipy)]]	1.39(±0.05) × 10^5 M^−1	2.45(±0.09) × 10^13 M^−1s^−1	18.0	6.36(±0.31) × 10^4 M^−1	8.09(±0.17) × 10^12 M^−1s^−1	39.8	−475	−701	−495	−684	0.97
CN1CCN(c2c(F)cc3c(=O)c(C(=O)[O-])cn(CCF)c3c2F)CC1.CN1CCN(c2c(F)cc3c(=O)c(C(=O)[O-])cn(CCF)c3c2F)CC1.[Mn+2].c1ccc(Nc2ccccn2)nc1 [complex 10, [Mn(flrx)2(bipyam)]]	6.46(±0.39) × 10^4 M^−1	1.20(±0.04) × 10^13 M^−1s^−1	31.6	8.40(±0.58) × 10^4 M^−1	8.01(±0.23) × 10^12 M^−1s^−1	47.4	−495	−706	−508	−695	0.98
CN1CCN(c2c(F)cc3c(=O)c(C(=O)[O-])cn(CCF)c3c2F)CC1.CN1CCN(c2c(F)cc3c(=O)c(C(=O)[O-])cn(CCF)c3c2F)CC1.[Mn+2].c1cnc2c(c1)ccc1cccnc12 [complex 11, [Mn(flrx)2(phen)]]	1.09(±0.03) × 10^5 M^−1	1.65(±0.04) × 10^13 M^−1s^−1	25.2	1.01(±0.04) × 10^5 M^−1	1.03(±0.01) × 10^13 M^−1s^−1	34.2	−501	−706	−499	−700	1.07
